Measurements taken from publication PMC11608315, “Subtilase SBT5.2 inactivates flagellin immunogenicity in the plant apoplast” (Nature Communications, 2024).
No end group written: not given here.

Columns and labels:
[1] = system: subtilases (SBTs), papain-like Cys proteases (PLCPs) and metalloproteases in AF; test: QP processing in AF of leaves expressing protease inhibitors Epi1, SlCys8 or HsTIMP; type: biochemical, Nicotiana benthamiana; settings: AF from leaves transiently expressing Epi1 (HsTIMP for comparison); EV = 100%; n = 3; Fig. 3a
Description: (§1) Agrobacterium tumefaciens GV3101 (pMP90) was used for agroinfiltration of N. benthamiana. Agrobacteria were grown overnight in Luria-Bertani (LB) medium with 10 μg/ml gentamycin and 50 μg/ml kanamycin at 28 °C. For transient expression of proteins in N. benthamiana, overnight cultures of Agrobacterium carrying binary vectors listed in Supplementary Table 1 were harvested by centrifugation. Bacterial cells were resuspended in agroinfiltration buffer (10 mM MgCl2, 10 mM MES pH 5.6, 150 μM acetosyringone) and mixed (1:1) with agrobacteria carrying the silencing inhibitor p19 at an OD600 of 0.5. After 1 h at 28 °C, cells were infiltrated into leaves of 4-week-old N. benthamiana. The infected plants were grown in a growth chamber until use.
The quenched peptides (QPs) from flagellin were commercially synthesised with a DABCYL N-terminal modification and a Glu-EDANS C-terminal modification (GenScript, Piscataway, New Jersey, United States) at a purity of 95% (Supplementary Table 2). They were resuspended in DMSO at a concentration of 1 mM. […] AFs or purified SBT5.2a were mixed with QPs at a final concentration of 10 µM in a volume of 100 µl, and fluorescence was measured immediately at 21 °C using an Infinite M200 plate reader (Tecan, Mannedorf, Switzerland) every minute over 5 min with an excitation wavelength of 335 nm and emission wavelength of 493 nm. […]

[2] = system: SBT5.2, SBT1.9a, SBT1.7a, SBT1.7c in AF; test: QP processing in AF of plants silenced for subtilases (VIGS); type: in vitro ADME, Nicotiana benthamiana; settings: 10 µM QP; TRV::GFP = 100%; n = 3 plants; Fig. 4a
Description: (§2) The quenched peptides (QPs) from flagellin were commercially synthesised with a DABCYL N-terminal modification and a Glu-EDANS C-terminal modification (GenScript, Piscataway, New Jersey, United States) at a purity of 95% (Supplementary Table 2). They were resuspended in DMSO at a concentration of 1 mM. This stock solution was further diluted in water to a concentration of 200 µM. AFs or purified SBT5.2a were mixed with QPs at a final concentration of 10 µM in a volume of 100 µl, and fluorescence was measured immediately at 21 °C using an Infinite M200 plate reader (Tecan, Mannedorf, Switzerland) every minute over 5 min with an excitation wavelength of 335 nm and emission wavelength of 493 nm.
(§3) Agrobacterium cultures were grown overnight and resuspended in an agroinfiltration buffer at OD600 = 0.5. Agrobacteria carrying binary plasmids for expressing RNA2 of TRV-carrying silencing fragments (Supplementary Table 1) were mixed 1:1 with Agrobacteria containing TRV1[38]. After incubation for 1 h at 21 °C, the mixed cultures were infiltrated into the leaves of 14-day-old N. benthamiana plants. The infiltrated plants were grown for another 4 to 5 weeks in a growth chamber until use.
N. benthamiana leaves were submerged in ice-cold water and vacuum infiltrated in a 50 ml syringe with a plunger. […]

[3] = system: AF of sbt5.2 mutant N. benthamiana; type: in vitro ADME, Nicotiana benthamiana; settings: 10 µM QP; n = 4; Fig. 5b
Description: as §2
(§4) N. benthamiana leaves were submerged in ice-cold water and vacuum infiltrated in a 50 ml syringe with a plunger. The surface of water-infiltrated leaves was dried with absorbing paper and leaves were carefully inserted into an empty 20 ml syringe, which was placed in a 50 ml tube. AFs were collected by centrifugation at 2000 × g at 4 °C for 10 min. AFs were immediately used or frozen using liquid nitrogen and stored at −20 °C until use.

[4] = system: purified SBT5.2a-His; test: QP cleavage by purified SBT5.2a-His (fluorescence); type: biochemical, Nicotiana benthamiana; settings: 10 μl of 25 μg/ml SBT5.2a-His, 10 µM QP; n = 4; Fig. 6a
Description: as §2
(§5) Four-week-old N. benthamiana leaves were infiltrated with a 1:1 mixture (final OD600 = 0.5 for each) of Agrobacterium tumefaciens GV3101 containing the silencing suppressor P19 and pPB097[22]. Apoplastic fluid containing SBT5.2a-His was extracted 6 days after infiltration as described above and purified as previously described[40],[41]. Briefly, SBT5.2a-His was purified by HisPur™ Ni-NTA resin and concentrated in 25 mM Tris-HCl pH = 6.8 using a 50 kDa MWCO Amicon Ultra-15 filter.

[5] = Solubility of quenched peptide (observation on dissolving the powder); type: physicochemical; settings: noticed when dissolving the peptide powder; response to reviewers
[6] = system: leaf discs of WT or sbt5.2 mutant N. benthamiana; test: ROS burst assay on sbt5.2 mutant versus WT leaf discs (timing, dose response); type: cell-based, Nicotiana benthamiana; settings: n = 12; Fig. 5e, 5f
Description: (§6) ROS assays were performed as described previously. Briefly, after incubation in water overnight, one leaf disc (6 mm diameter) was added to 100 µl solution containing 25 ng/µl luminol, 25 ng/µl Horse Radish Peroxidase (HRP) and specified elicitor treatments. For assays with treated elicitors, elicitor peptides or purified flagellin were incubated in AFs from N. benthamiana leaves (wild-type, agroinfiltrated, VIGS-silenced or sbt5.2 mutants) or purified SBT5.2a-HIS for the specified time at 21 °C. After incubation, 25 ng/µl luminol and 25 ng/µl HRP were added to the AFs. Chemiluminescence was measured immediately with the Infinite M200 plate reader (Tecan, Mannedorf, Switzerland) every minute for one hour. Standard errors were calculated at each time point and for each treatment.

[7] = system: apoplastic proteases in apoplastic fluids (AF) of N. benthamiana; test: Residual immunogenicity (ROS assay) after incubation of elicitor in AF of WT plants; type: in vitro ADME, Nicotiana benthamiana; settings: ROS read-out, n = 6
Description: as §4, §6

[8] = system: subtilases in AF of N. benthamiana; test: Residual immunogenicity (ROS assay) after incubation in AF of leaves transiently expressing Epi1 or empty vector; type: in vitro ADME, Nicotiana benthamiana; settings: 10 µg/ml monomeric flagellin or 100 nM flg22, 40 min in AF; ROS read-out, n = 6; Fig. 3b
Description: as §1
as §4, with “AFs were immediately used or frozen using liquid nitrogen and stored at −20 °C until use.” left out
ROS assays were performed as described previously. […] Chemiluminescence was measured immediately with the Infinite M200 plate reader (Tecan, Mannedorf, Switzerland) every minute for one hour. Standard errors were calculated at each time point and for each treatment.

[9] = system: FLS2; settings: microsomal fractions that presumably lack subtilases; read-out: IC50, competition with binding by radiolabeled flg22; cited from earlier work
Text: However, although flagellin can bind FLS2, it is unclear at this stage if it would also activate FLS2 signalling because that would require subsequent BAK1 binding to FLS2. The extension of flg22 at its C-terminus is likely to obstruct BAK1 binding, based on the structure of flg22 bound to the FLS2 and BAK1[34].

[10] = system: SBT5.2 subtilases in AF; test: Residual immunogenicity (ROS assay) after incubation in AF of TRV::SBT5.2 or TRV::GFP plants; type: in vitro ADME, Nicotiana benthamiana; settings: 100 nM flg22, 0, 30, 60 min in AF; ROS read-out, n = 6; Fig. 4b
Description: as §3, §4
ROS assays were performed as described previously. Briefly, after incubation in water overnight, one leaf disc (6 mm diameter) was added to 100 µl solution containing 25 ng/µl luminol, 25 ng/µl Horse Radish Peroxidase (HRP) and specified elicitor treatments. […] Chemiluminescence was measured immediately with the Infinite M200 plate reader (Tecan, Mannedorf, Switzerland) every minute for one hour. Standard errors were calculated at each time point and for each treatment.

[11] = system: AF of sbt5.2 mutant N. benthamiana; type: in vitro ADME, Nicotiana benthamiana; settings: 100 nM flg22, 30 min in AF; ROS read-out, n = 6; Fig. 5c
Description: as §4, §6

[12] = system: purified SBT5.2a-His; test: Residual immunogenicity (ROS assay) after incubation with purified SBT5.2a-His; type: biochemical, Nicotiana benthamiana; settings: 50 nM flg22, 10 μg/ml SBT5.2a-His, 40 min; ROS read-out, n = 6; Fig. 6b
Description: as §5, §6

Substance: SAKDDAAG [QP3, custom-synthesised quenched peptide with cleavage site SAKD ↓ DAAG within flg22, DABCYL and Glu-EDANS]
- QP processing in AF containing Epi1 [1]: suppressed more by Epi1 than by HsTIMP
- QP processing in AF of TRV::SBT1.9a and TRV::SBT1.7a plants [2]: also reduced
- QP processing in AF of TRV::SBT5.2 plants compared to TRV::GFP control [2]: not as strongly reduced
- QP processing in AF of sbt5.2 mutant plants versus WT [3]: only slightly reduced
- cleavage by purified SBT5.2a-His [4]: hardly cleaved

Substance: LQIA ↓ TKITS [QP4, custom-synthesised quenched peptide with flg22-flanking site LQIA ↓ TKITS, DABCYL and Glu-EDANS]
- QP processing in AF containing Epi1 [1]: near complete blockage
- QP processing in AF of sbt5.2 mutant plants versus WT [3]: strongly reduced but not significant
- solubility [5]: problematic

Substance: flagellin
- timing and amplitude of oxidative burst, WT versus sbt5.2 mutant leaf discs [6]: similar
- oxidative burst after incubation with AF ([7]; 10 µg/ml monomeric flagellin incubated with AF for 30 or 60 min, 21 °C, Fig. 1e): quickly disappears
- immunogenic activity after incubation in AF from leaves expressing Epi1 [8]: immunogenic activity was detected
- IC50 [9]: 120 nM

Substance: TRLSSGLKINSAKDDAAGLQIA [flg22, reference compound]
- immunogenicity after incubation in AF of WT plants ([7]; 100 nM flg22, 30 min in AF, Fig. 5c): quickly lost
- immunogenic activity after incubation in AF from leaves expressing Epi1 [8]: immunogenic activity was detected
- decline of immunogenicity in AF of TRV::SBT5.2 compared to TRV::GFP plants [10]: much slower
- immunogenicity after incubation in AF of sbt5.2 plants [11]: retains immunogenicity significantly longer
- elicitor activity after incubation with purified SBT5.2a-His [12]: inactivated its elicitor activity
